structure (smiles),measurement,value
"O=C1CSCCN1c1ccc(Cl)c(Cl)c1 [Example 1, 4-(3,4-Dichloro-phenyl)-thiomorpholin-3-one]",melting point,81 to 83 °C

# Source: patent US6388127B1, “Process for preparing cyclic thioamides” (Pfizer INC, priority 1999, dated 2002)
